± gives the expanded uncertainty stated by the source.
Assay: wn = mass fraction of the nth substance listed
Details: 298.15 K, 100 kPa, Liquid, Vibrating tube method

- mass density (w1 = 0.1): 1026.64 ± 1.2 kg/m3
- mass density (w1 = 0.2): 1056.71 ± 1.2 kg/m3
- mass density (w1 = 0.3): 1087.25 ± 1.2 kg/m3
- mass density (w1 = 0.4): 1118.6 ± 1.2 kg/m3
SMILES: O=C1OCCO1 [ethylene carbonate] + O
